ChEMBL document CHEMBL3638846, “Galactoside inhibitors of galectins” (2014)

Columns and labels:
[1] = molecular target: Galectin-1 (Homo sapiens, UniProt P09382); assay: (§1) Fluorescence Polarization-Based Assay: Compounds 7, 15-19, and 22 were evaluated for their efficiency in inhibiting galectin-1 and galectin-3 in a known fluorescence polarization-based assay (Sörme et al., 2003a, 2004). All compounds were potent inhibitors of galectin-1 and galectin-3 with dissociation constant in the low μM or nM range. This evidences that a properly structured cyclohexane can mimic the subsite D-binding saccharide moiety, e.g. N-acetylglucosamine in the disaccharide N-acetyllactosamine.
Sequence of Galectin-1 (P09382 whole entry): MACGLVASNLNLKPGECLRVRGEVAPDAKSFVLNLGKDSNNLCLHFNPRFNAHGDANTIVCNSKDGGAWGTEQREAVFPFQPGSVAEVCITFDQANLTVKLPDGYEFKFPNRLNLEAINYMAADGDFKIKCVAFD

[2] = molecular target: Galectin-3 (Homo sapiens, UniProt P17931); assay: as §1
Sequence of Galectin-3 (P17931 whole entry): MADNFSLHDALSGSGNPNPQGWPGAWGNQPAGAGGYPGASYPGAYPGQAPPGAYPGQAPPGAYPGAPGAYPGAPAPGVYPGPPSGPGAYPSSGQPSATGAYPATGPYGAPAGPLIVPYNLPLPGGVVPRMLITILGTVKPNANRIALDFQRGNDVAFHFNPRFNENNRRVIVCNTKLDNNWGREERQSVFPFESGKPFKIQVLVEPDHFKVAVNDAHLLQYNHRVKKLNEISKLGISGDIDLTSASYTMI

SMILES: CO[C@@H]1OC(CO)[C@@H](O[C@@H]2OC(CO)[C@H](O)[C@H](O)C2O)[C@H](O)C1NC(C)=O (some centres not stated)
- Kd [1]: 65 µM
- Kd [2]: 59 µM
